“And” between values parts separate entries of the source, which are not always exact repeats. Identical values can stand only once.
Key:
PCNA in PC3 cells = target: T1, PCNA in PC3 cells (Homo sapiens, UniProt P12004); assay: Cellular thermal shift assay (CETSA), control protein; assay type: cell-based; settings: 10 μM JA2131
T1 construct: endogenous in cells; host or cells: PC3
Protocol: (§1) CETSA was performed as described by Molina et al.[44]. Briefly, PC3 cells were treated with 10 μM JA2131 or an equivalent volume of DMSO for 2 h, washed three times with PBS and extracted for total cell lysate. Ten percent glycerol was added to the samples before subjecting to heat. […] Then, samples were centrifuged at 14,000 rpm for 20 min at 4 °C. Supernatants were carefully removed and analyzed by western blotting analysis.
(§2) Supplementary Fig. 14: Representative CETSA western blots for PARG and PCNA. PC3 cells
(§3) treated with 10 µM JA2131 or DMSO were temperature shocked as described in Materials and […]
(§4) PCNA antibody. Anti -Histone H3 was used as loading control.
(§5) (1 picture or pasted object on this page, not shown here)

PC3 cells = assay: Clonogenic survival assay; assay type: cell-based, human; settings: for surviving colonies, Replicates: two weeks
Protocol: (§6) Fig. 6 Selective inhibition of PARG by xanthine derivative JA2131. a Clonogenic survival assays of PC3, MDA-MB-231, and MCF-7 cells treated with PARGi. Cells were treated with either DMSO or 10 µM JA2131 for 2 h, irradiated with 3 Gy (MDA-MB-231 and MCF-7), 7 Gy (PC3) IR and grown for ~2 weeks, then colonies were fixed with methanol and stained with crystal violet. The results of three independent experiments are shown. Error bars = the standard error of the mean (SEM). b dose-response of JA2131 in MDA-MB-231 cells with and without IR. Cells were treated with designated concentrations of JA2131 for 2 h and then either left untreated or exposed to 3 Gy IR and allowed to recover for 1 h before lysis. Total protein was immunoblotted with anti-PAR antibody (upper panel), stripped and reprobed with anti-PCNA as a loading control. c MDA-MB-231 cells with stable scrambled shRNA (WT) or stable PARG shRNA, knockdown (KD), were treated with 5 μM JA2131 for 2 h, lysed and then total lysates were immunoblotted for anti-PAR (upper panel) followed by anti-PARG (upper middle panel), anti-PARP1 (lower middle panel) and anti-actin (bottom panel) antibody. […] Stable cells with scramble shRNA (control) and shPARG (PARG-KD) cells were treated with an increasing concentration of JA2131 for growth inhibitory IC50 determination. The data was normalized against 100% survival at the lowest inhibitor concentration. Error bars show the percent coefficient of variation. Equivalent concentrations of DMSO were used as a negative control. e The cytotoxicity of JA2131 along with PDD, Veliparib and Doxorubicin against MRC-5 cells. Error bars show the percent coefficient of variation. f CETSA for in-cell JA2131 target engagement. Normalized anti-PARG western blot intensities of three independent experiments were fitted as above and the estimated aggregation temperature (Tagg) is shown in the tabulated insert. Source Data are provided as a Source Data file.
(§7) PC3, MDA-MB-231 cells were maintained in RPMI 1640, MCF-7 cells in Eagle’s Minimum Essential Medium (EMEM), MRC-5 cells in Eagle’s Minimum Essential Medium and Hela and U2OS cells in Dulbecco’s modified Eagle’s high glucose medium (DMEM) supplemented with 10% (vol/vol) fetal bovine serum (FBS) and 1% antibiotic/antimycotic (Lonza) in a humidified incubator with 10% CO2. All cell lines were purchased from ATCC and regularly checked for mycoplasma and cell authentication. SUM 149PT cells were cultured in F-12 Hams (Gibco) supplemented with 5% fetal bovine serum, insulin, and hydrocortisone. Colony formation assays were carried out in 6-well plates, 500 cells were used per well and following designated treatment, and colonies were grown for 2 weeks. Cells were fixed with methanol (100%), stained with crystal violet and analyzed using a GelCount instrument (Oxford Optronix Ltd). Crystal Violet C6158 was purchased from Sigma. PARG knockdown cells were generated by infecting MDA-MB-231 cells with shPARG lentiviral particles (sc-106355-V, Santa Cruz Biotechnology), which contain a pool of three shRNA plasmids. After 24 h infection, 3 µg/ml puromycin (Invitrogen) was added and antibiotic-resistant cells were further expanded and used for experimentation. Sequence-1; hairpin sequence: […], sense: […]tt, Antisense: […]tt. Sequence-2; hairpin sequence, […]-[…], sense: […]tt, antisense: […]tt. Sequence-3; hairpin sequence: […]-[…], sense: […]tt, antisense: […]-GGUUUCCtt. Control cells were generated using the same process except that scramble lentiviral particles with scrambled sequences were used (sc-108080).
(§8) Supplementary Fig. 8: Clonogenic survival of cells in the presence of PARGi and PARPi (a)
(§9) Clonogenic survival of PC3 cells in response to indicated compounds. ( b) Clonogenic survival of
(§10) MDA-MB-231 cells in response to i ndicated compounds. (c) Clonogenic survival of MCF -7 cells
(§11) in response to indicated compounds. […]

MDA-MB-231 cells [1] = assay: Clonogenic survival assay; assay type: cell-based, human; settings: for colony count (clonogenic survival, raw replicate data, Supplementary Figure 8): MDA-MB-231
Protocol: as §6, §7, §8, §9, §10, §11

MDA-MB-231 cells [2] = assay: Clonogenic survival assay; assay type: cell-based, human; settings: 10 µM JA2131 2 h; 3 Gy IR; ~2 weeks
[3] = Sulforhodamine B (SRB) cytotoxicity assay; assay type: cell-based, human; settings: human; for viability at 72 h, 25 µM: log concentration μM 1.39794
Protocol: as §6

MRC-5 cells = assay: Sulforhodamine B (SRB) cytotoxicity assay; assay type: cell-based, human; settings: Homo sapiens, MRC5, 72 h
Protocol: as §6

PARG in PC3 cells = target: T2, PARG in PC3 cells (Homo sapiens, UniProt Q86W56); assay: Cellular thermal shift assay (CETSA); assay type: cell-based; settings: 10 μM JA2131
T2 construct: endogenous in cells; host or cells: PC3
T2 sequence (Q86W56 whole entry): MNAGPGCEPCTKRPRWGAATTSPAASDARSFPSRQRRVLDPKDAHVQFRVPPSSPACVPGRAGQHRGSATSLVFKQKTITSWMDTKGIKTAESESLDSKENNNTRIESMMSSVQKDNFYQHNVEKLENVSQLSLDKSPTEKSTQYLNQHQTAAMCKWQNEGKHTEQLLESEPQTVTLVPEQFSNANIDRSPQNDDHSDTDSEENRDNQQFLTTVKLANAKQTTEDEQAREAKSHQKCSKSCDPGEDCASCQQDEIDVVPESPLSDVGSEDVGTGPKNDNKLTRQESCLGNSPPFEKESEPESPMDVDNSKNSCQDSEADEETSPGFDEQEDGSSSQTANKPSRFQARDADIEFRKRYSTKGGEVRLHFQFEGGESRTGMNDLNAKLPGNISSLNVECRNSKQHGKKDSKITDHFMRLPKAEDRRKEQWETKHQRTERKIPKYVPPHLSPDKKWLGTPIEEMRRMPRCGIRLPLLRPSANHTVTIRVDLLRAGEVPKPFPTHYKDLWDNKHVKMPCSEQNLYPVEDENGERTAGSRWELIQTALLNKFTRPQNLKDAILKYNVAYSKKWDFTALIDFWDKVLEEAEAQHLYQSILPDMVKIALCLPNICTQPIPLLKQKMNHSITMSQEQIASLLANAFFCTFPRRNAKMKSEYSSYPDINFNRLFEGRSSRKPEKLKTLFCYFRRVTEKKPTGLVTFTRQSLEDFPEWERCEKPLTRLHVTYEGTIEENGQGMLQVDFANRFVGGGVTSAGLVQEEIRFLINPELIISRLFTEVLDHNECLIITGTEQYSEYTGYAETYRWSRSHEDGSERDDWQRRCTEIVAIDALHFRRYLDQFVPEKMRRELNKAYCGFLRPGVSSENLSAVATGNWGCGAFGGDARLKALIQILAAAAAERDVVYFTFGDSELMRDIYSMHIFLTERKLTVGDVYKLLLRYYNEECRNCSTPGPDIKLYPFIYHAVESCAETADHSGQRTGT
Protocol: as §1, §2, §3, §4, §5

[4] = 10 µM JA2131 2 h, 7 Gy IR, ~2 weeks

T1 sequence (P12004 whole entry): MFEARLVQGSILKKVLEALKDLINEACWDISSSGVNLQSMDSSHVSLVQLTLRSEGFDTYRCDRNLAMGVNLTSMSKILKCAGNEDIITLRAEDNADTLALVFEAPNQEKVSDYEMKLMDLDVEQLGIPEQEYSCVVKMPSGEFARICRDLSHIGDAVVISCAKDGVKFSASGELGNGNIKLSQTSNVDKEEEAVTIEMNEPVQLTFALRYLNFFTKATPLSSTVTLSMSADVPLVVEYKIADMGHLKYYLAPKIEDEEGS

Band intensities, anti-PCNA (PCNA in PC3 cells; Temperature 4 °C): 100 | Band intensities, anti-PCNA (PCNA in PC3 cells; Temperature 51 °C): 91.1484 | Band intensities, anti-PCNA (PCNA in PC3 cells; Temperature 62 °C): 38.4112 | Band intensities, anti-PCNA (PCNA in PC3 cells; Temperature 68 °C): 12.3183 | Band intensities, anti-PCNA (PCNA in PC3 cells; Temperature 72 °C): 4.285 | Band intensities, anti-PCNA (PCNA in PC3 cells; Temperature 77 °C): 3.2332 | Band intensities, anti-PCNA (PCNA in PC3 cells; Temperature 85 °C): 4.145 | stabilization of PARG proteins in cells (PARG in PC3 cells): 9 °C | Band intensities, anti-PARG (PARG in PC3 cells; Temperature 4 °C): 100 | Band intensities, anti-PARG (PARG in PC3 cells; Temperature 51 °C): 93.0607 | Band intensities, anti-PARG (PARG in PC3 cells; Temperature 62 °C): 68.3696 | Band intensities, anti-PARG (PARG in PC3 cells; Temperature 68 °C): 57.8125 | Band intensities, anti-PARG (PARG in PC3 cells; Temperature 72 °C): 44.7308 | Band intensities, anti-PARG (PARG in PC3 cells; Temperature 77 °C): 28.3012 | Band intensities, anti-PARG (PARG in PC3 cells; Temperature 85 °C): 16.0619
SMILES: Cn1c(=S)c2[nH]c(SCCN3CCOCC3)nc2n(C)c1=O [JA2131]
change in thermal stability of PCNA control (PCNA in PC3 cells): no significant change in thermal stability | Surviving Fraction (PC3 cells; [4]): 0.7713 and 0.7545 and 0.8277 and 0.7845 | clonogenic survival (Exp-1 to Exp-4) (PC3 cells; [4]): 77.1344 and 75.4495 and 82.7709 and 78.4516 | surviving colonies, Replicates (PC3 cells; JA2131 0.5 uM): 47 and 58 and 49 and 56 and 83 and 61 | surviving colonies, Replicates (PC3 cells; JA2131 1 uM): 9 and 48 and 34 and 20 and 62 and 2 | surviving colonies, Replicates (PC3 cells; JA2131 5 uM): 1 and 29 and 2 (2×) and 24 and 0 | surviving colonies, Replicates (PC3 cells; JA2131 10 uM): 2 and 15 and 14 and 0 and 21 and 5 | Surviving Fraction (MDA-MB-231 cells [1]; 10 µM JA2131 2 h, 3 Gy IR, ~2 weeks): 0.4526 and 0.3681 and 0.2687 and 0.3631 | colony count (clonogenic survival, raw replicate data, Supplementary Figure 8) (MDA-MB-231 cells [1]; Experiment-1, replicates 1-6): 76 (2×) and 74 and 77 and 70 and 85 | colony count (clonogenic survival, raw replicate data, Supplementary Figure 8) (MDA-MB-231 cells [1]; Experiment-2, replicates 1-6): 61 (3×) and 68 and 76 and 65 | colony count (clonogenic survival, raw replicate data, Supplementary Figure 8) (MDA-MB-231 cells [1]; Experiment-3, replicates 1-6): 34 and 25 and 20 and 47 and 33 and 35 | clonogenic survival (Exp-1 to Exp-4) (MDA-MB-231 cells [2]): 45.2569 and 36.8075 and 26.8698 and 36.3114 | viability at 72 h, 25 µM ([3]; MDA-MB-231 cells with stable PARG shRNA knockdown (PARG-KD), 72 h): 80.4% | viability at 72 h, 50 µM ([3]; MDA-MB-231 cells with stable PARG shRNA knockdown (PARG-KD), log concentration μM 1.69897, 72 h): 70.2% | viability at 72 h, 25 µM ([3]; MDA-MB-231 control cells with stable scramble shRNA): 17% | viability at 72 h, 1.95 µM ([3]; MRC-5 cells, log [concentration] μM 0.29): 98.4% | viability at 72 h, 3.89 µM ([3]; MRC-5 cells, log [concentration] μM 0.59): 99.3% | viability at 72 h, 7.76 µM ([3]; MRC-5 cells, log [concentration] μM 0.89): 98.5% | viability at 72 h, 15.5 µM ([3]; MRC-5 cells, log [concentration] μM 1.19): 100% | viability at 72 h, 30.9 µM ([3]; MRC-5 cells, log [concentration] μM 1.49): 91.9% | viability at 72 h, 63.1 µM ([3]; MRC-5 cells, log [concentration] μM 1.8): 79.9% | viability at 72 h, 126 µM ([3]; MRC-5 cells, log [concentration] μM 2.1): 61.4% | viability at 72 h, 251 µM ([3]; MRC-5 cells, log [concentration] μM 2.4): 28.2% | viability at 72 h, 501 µM ([3]; MRC-5 cells, log [concentration] μM 2.7): 20.4% | viability at 72 h, 0.977 µM ([3]; MRC-5 cells, log [concentration] μM -0.01): 93.5% | viability at 72 h, 0.49 µM ([3]; MRC-5 cells, log [concentration] μM -0.31): 100% | viability at 72 h, 0.245 µM ([3]; MRC-5 cells, log [concentration] μM -0.61): 100% | IC50 (MRC-5 cells): 132 ± 35.9 µM

From PMC6906431, “Selective small molecule PARG inhibitor causes replication fork stalling and cancer cell death” (Nature Communications, 2019)
